Legend:
gastric acid secretion = assay: Effect on the gastric acid secretion (Shay's method, pylorus ligation); assay type: in vivo, Wistar rats; details: rat, p.o., test according to Shay
Method: The influence of the compounds on the gastric acid secretion was examined on starved Wistar rats of both sexes weighing 180 to 240 g each by using Shay's method /H. Shay et al., Gastroenterology, 5, 45 (1945)/. The compounds to be tested were given, perorally, 3 hours before the ligation of the pylorus. Four hours after the operation, the animals were killed by an overdose of ether, the stomach was excised, the stomach content was centrifuged and the free hydrochloric acid content of the gastric juice was determined by titration in the presence of Topfer's reagent. The percentage of inhibition and then the ED50 values were determined by calculating average values for the groups and comparing those to the average values for the control group.

[1] = test system: gastric erosions induced by ethanol containing hydrochloric acid; assay: Test with ethanol containing hydrochloric acid (gastric erosions); assay type: in vivo, rat; details: po; rat, p.o., HCl/absolute ethanol 1 to 50; erosion index; read-out: Inhibition of the erosion index, ED50 p.o.
Method: (§1) Rats of both sexes weighing 200 to 250 g, each previously starved for 24 hours, were used in this experiment. The lesions of gastric mucosa were induced by the oral administration of absolute ethanol in a dose of 1 ml/animal. After one hour following the administration, the animals were killed by an overdose of ether, the stomach was excised and the alterations of gastric mucosa were examined. The lengths of the erosions were measured and summarized (expressed in mm) for each stomach to obtain the erosion index by calculating the average value of the group. The inhibition was calculated in percentage by comparing the value of the group treated with ethanol to that of the control group treated only with the vehicle. Various doses of the compounds to be tested were administered, perorally, in a volume of 5 ml/kg using a pretreatment time of 60 minutes. Eight rats were used for each dose. /A. Robert, Gastroenterology 77, 761-767 (1979)/.
The principle of the method consists in that, simultaneously with the administration of absolute ethanol, hydrochloric acid is introduced to the stomach. Thus, the influence on systemic gastric acid inhibition action can be eliminated by the presence of the exogenous acid.
The reagent used in this test was a mixture of concentrated aqueous hydrochloric acid and absolute ethanol in a mass ratio of 1 to 50 in accordance with the dilution ratio used by Yamazaki et al., see Japan J. Pharmacol., 55, 415-424 (1991). Otherwise, the experiment was performed as described under test 2.1., however, in addition to the erosion index calculated from the lengths of the erosions in mm, the ratio of occurence of animals showing at least one gastric erosion within a test group, i.e. the erosion frequency, was also evaluated.

Helicobacter pylori = assay: Antibacterial effect on Helicobacter pylori (MIC, blood agar); assay type: cell-based; details: for MIC: Helicobacter pylori, 72 h
Method: Helicobacter pylori strains used in these experiments were obtained from the biopsial samples of the stomachs of patients suffering from ulcerative diseases of the gastrointestinal system. From the pure culture of isolates a thick suspension was prepared with cysteine-inositol solution suitable for lyophilisation, and the suspension obtained was maintained in cold-resistant plastic ampoules in a deep-freezing chamber at a temperature of about -196 ° C. For the determination of the inhibitory effect of the compounds tested on Helicobacter pylori, blood agar containing 10 mg/liter of vancomycin and 25 mg/liter of amphotericin B was used /C. A. M. McNulty and I. C. Dent: Susceptibility of clinical isolates of Campylobacter pylori to twenty one antimicrobial agents. Book of Abstracts, 4th European Congress of Clinical Microbiology, Nice (1989)/.
The plates containing the strains were cultivated at 37° C. for 72 hours under a gaseous atmosphere containing 10 per cent of carbon dioxide and 5 per cent of oxygen /D. M. Jones et al., J. Clin. Pathol., 37, 1002 (1984)/.
The culture media were inoculated by diluting the broth culture of the strains grown overnight or with a suspension prepared from a culture obtained on a solid medium. About 10^5 of germs were applied to the surface of each plate.
A series of dilution were prepared from the compound to be-tested. The MIC (minimal inhibiting concentration) value of the compounds tested was considered to be the lowest concentration inhibiting the growth of the test organism completely.

[2] = test system: gastric mucosa lesions induced by absolute ethanol; assay: Gastroprotective activity, test with absolute ethanol (gastric mucosa erosions); assay type: in vivo, rat
Method: as §1
^x Relative activity = ED50 value of the gastric acid inhibition
related to the ED50 value of the inhibition of the gastric erosion.

MIC (Helicobacter pylori; Table IV, strains not specified, unit inferred): > 500 µg/mL
MIC (Helicobacter pylori; strain 867/90): > 500 µg/mL
MIC (Helicobacter pylori; strain 1596): > 500 µg/mL
MIC (Helicobacter pylori; strain 3842): > 500 µg/mL
MIC (Helicobacter pylori; strain 6656): > 500 µg/mL
MIC (Helicobacter pylori; strain 6709): > 500 µg/mL
SMILES: NC[C@H]1CC[C@H](C(=O)Oc2ccc(CCC(=O)O)cc2)CC1 [cetraxate, trans-3-[4-[4-(aminomethyl)cyclohexylcarbonyloxy]phenyl]-propionic acid, reference compound]
gastric acid secretion inhibition (in words) (gastric acid secretion): only a moderate gastric acid secretion inhibition
ED50 [1]: 22 mg/kg
effect on Helicobacter pylori (in words) (Helicobacter pylori; Table IV): ineffective at the concentration indicated
ED50 ([2]; po, rat, 60 min pretreatment, absolute ethanol 1 ml/animal, erosion index): 76.4 mg/kg
gastroprotective activity (in words) ([2]; test with absolute ethanol): nearly identical activity

— patent US5597822A, “Pharmaceutical compositions for the prevention and/or treatment a gastrointestinal diseases” (Egis Pharmaceutical, priority 1993, dated 1997)
